Measurements from ChEMBL document CHEMBL5584238, “Psammaplin A analogues with modified disulfide bond targeting histone deacetylases: Synthesis and biological evaluation” (Eur J Med Chem, 2024).
Activity calls are given as the source filed them. The calls are words filed in the database; no cut-off is given here.

Assays:
HCT-116 = test: Antiproliferative activity against human HCT-116 cells incubated for 48 hrs by MTT assay; assay type: functional, cell-based; settings: HCT-116, 48 h
EBC-1 = test: Antiproliferative activity against human EBC-1 cells incubated for 48 hrs by MTT assay; assay type: functional, cell-based; settings: EBC-1, 48 h
NCI-H1581 = test: Antiproliferative activity against human NCI-H1581 cells incubated for 48 hrs by MTT assay; assay type: functional, cell-based; settings: NCI-H1581, 48 h
[1] = target: Class 1 histone deacetylase (Homo sapiens) (UniProt Q13547+O15379+Q92769+Q9BY41); test: Inhibition of class 1 HDACs in human HCT-116 cells assessed as upregulation of acetylated alpha-H3 level at 1 uM incubated for 24 hrs by Western blotting analysis; assay type: cell-based
[2] = target: T1, Protein deacetylase HDAC6 (Homo sapiens) (UniProt Q9UBN7); test: Inhibition of HDAC6 in human HCT-116 cells assessed as upregulation of acetylated alpha-tubulin level at 1 uM incubated for 24 hrs by Western blotting analysis; assay type: cell-based
T1 sequence (whole entry): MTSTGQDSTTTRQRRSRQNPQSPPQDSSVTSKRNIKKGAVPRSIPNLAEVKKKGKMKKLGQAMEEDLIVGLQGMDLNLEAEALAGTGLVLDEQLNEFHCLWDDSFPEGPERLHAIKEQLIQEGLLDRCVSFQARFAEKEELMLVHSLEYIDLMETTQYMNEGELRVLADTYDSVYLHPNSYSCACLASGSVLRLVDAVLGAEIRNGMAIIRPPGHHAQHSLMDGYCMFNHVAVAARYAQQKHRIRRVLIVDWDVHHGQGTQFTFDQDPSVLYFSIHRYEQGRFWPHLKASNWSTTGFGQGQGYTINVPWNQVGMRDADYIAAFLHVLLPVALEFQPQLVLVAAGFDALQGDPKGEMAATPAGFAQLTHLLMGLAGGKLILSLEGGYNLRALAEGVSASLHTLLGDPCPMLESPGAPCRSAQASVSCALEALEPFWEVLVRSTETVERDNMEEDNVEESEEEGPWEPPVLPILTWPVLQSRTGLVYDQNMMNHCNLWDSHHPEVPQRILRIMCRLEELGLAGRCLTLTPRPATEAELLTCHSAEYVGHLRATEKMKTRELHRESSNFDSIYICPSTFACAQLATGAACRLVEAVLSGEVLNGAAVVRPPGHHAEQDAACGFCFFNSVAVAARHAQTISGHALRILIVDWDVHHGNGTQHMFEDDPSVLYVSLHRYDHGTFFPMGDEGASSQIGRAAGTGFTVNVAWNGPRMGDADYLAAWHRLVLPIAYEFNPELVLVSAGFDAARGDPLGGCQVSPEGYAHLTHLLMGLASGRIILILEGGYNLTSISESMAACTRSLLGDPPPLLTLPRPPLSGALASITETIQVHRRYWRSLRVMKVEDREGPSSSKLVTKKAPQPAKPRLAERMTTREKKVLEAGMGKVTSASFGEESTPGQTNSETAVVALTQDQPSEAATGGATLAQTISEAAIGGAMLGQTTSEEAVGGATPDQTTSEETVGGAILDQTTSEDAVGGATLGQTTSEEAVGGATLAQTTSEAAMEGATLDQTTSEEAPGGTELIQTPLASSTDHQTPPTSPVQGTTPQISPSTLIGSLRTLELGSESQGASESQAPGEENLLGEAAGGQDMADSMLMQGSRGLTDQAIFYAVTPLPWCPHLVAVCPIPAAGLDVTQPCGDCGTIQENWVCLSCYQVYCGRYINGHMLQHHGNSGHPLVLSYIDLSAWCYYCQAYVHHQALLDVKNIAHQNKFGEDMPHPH

Histone deacetylase 1 = Histone deacetylase 1 (Homo sapiens, UniProt Q13547); test: Inhibition of recombinant human HDAC1 using Boc-Lys(Ac)-AMC as substrate preincubated for 1 hr followed by substrate addition and measured after 2 hrs by microplate reader assay
[3] = target: T2, Protein deacetylase HDAC6 (Homo sapiens, UniProt Q9UBN7); test: Inhibition of recombinant human HDAC6 using Boc-Lys(Ac)-AMC as substrate preincubated for 1 hr followed by substrate addition and measured after 2 hrs by microplate reader assay
T2 sequence (Q9UBN7 whole entry): T1 sequence (whole entry)

Histone deacetylase 1, sequence (Q13547 whole entry): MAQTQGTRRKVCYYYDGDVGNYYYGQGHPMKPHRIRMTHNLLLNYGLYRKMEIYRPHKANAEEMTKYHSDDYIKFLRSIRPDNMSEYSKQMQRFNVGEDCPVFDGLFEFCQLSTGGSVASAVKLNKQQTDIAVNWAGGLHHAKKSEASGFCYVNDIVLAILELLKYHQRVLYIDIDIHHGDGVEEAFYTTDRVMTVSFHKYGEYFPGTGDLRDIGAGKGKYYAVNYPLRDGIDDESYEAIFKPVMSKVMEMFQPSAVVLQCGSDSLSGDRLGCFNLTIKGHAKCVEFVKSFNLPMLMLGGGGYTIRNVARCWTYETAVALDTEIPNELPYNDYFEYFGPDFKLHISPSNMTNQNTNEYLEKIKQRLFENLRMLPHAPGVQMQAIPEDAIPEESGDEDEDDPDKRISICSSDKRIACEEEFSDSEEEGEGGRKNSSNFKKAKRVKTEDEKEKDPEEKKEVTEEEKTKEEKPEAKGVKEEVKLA
Class 1 histone deacetylase (Homo sapiens), sequence (O15379 whole entry, looked up): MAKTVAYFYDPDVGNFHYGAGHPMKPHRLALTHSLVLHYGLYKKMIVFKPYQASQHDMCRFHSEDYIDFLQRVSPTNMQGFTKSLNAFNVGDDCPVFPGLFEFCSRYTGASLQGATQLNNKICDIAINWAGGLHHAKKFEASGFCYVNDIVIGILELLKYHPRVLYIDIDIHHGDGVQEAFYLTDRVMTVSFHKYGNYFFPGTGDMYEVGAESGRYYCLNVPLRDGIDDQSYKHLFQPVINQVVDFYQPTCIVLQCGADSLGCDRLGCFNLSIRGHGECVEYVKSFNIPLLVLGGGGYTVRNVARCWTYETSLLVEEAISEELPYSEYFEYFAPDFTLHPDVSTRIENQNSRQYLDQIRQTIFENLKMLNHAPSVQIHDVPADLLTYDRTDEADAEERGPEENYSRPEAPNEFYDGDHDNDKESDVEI
Class 1 histone deacetylase (Homo sapiens), sequence (Q13547 whole entry, looked up): as the sequence (Q13547 whole entry) above
Class 1 histone deacetylase (Homo sapiens), sequence (Q92769 whole entry, looked up): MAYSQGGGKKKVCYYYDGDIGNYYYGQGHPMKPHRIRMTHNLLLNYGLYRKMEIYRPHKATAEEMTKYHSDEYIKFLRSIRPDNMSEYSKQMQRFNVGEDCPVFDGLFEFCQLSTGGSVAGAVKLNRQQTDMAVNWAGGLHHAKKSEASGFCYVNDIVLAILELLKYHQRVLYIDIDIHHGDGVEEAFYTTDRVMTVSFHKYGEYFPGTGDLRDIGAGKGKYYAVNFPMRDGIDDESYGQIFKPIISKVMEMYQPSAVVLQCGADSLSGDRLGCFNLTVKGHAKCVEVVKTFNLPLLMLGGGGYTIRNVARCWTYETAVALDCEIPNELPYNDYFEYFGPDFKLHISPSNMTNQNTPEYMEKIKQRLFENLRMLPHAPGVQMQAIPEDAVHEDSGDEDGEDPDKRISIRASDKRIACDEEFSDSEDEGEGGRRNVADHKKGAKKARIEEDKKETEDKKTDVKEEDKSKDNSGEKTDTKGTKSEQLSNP
Class 1 histone deacetylase (Homo sapiens), sequence (Q9BY41 whole entry, looked up): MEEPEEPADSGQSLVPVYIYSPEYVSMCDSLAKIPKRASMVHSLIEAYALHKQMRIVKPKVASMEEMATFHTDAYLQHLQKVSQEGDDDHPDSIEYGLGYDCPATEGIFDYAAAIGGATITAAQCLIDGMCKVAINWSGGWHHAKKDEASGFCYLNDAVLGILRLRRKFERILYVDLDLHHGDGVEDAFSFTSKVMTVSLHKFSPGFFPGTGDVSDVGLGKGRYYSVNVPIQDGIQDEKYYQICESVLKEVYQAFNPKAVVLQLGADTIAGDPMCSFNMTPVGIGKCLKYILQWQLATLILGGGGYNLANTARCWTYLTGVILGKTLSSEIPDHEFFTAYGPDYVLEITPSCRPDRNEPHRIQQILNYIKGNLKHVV

Row | IC50 (HCT-116) | IC50 (NCI-H1581) | inhibition [1] | inhibition [2] | IC50 (Histone deacetylase 1) | IC50 [3] | SMILES | IC50 (EBC-1)
1 | 410 nM | 300 nM | Active | Active | 570 nM | 3600 nM | O=C(NCC[Se][Se]CCNC(=O)/C(Cc1ccc(Br)s1)=N/O)/C(Cc1ccc(Br)s1)=N/O | 720 nM
2 | 500 nM | 280 nM | – | – | – | – | O=C(NCC[Se][Se]CCNC(=O)/C(Cc1ccc(Cl)s1)=N/O)/C(Cc1ccc(Cl)s1)=N/O | 1360 nM
